Results on eleven compounds are retold here after ChEMBL document CHEMBL1201862, “PubChem BioAssay data set” (2004).

Among the test systems are SF-268; ACHN; MDA-N; UO-31; PC-3; SF-295; RXF 393; IGROV-1; HCT-116; CAKI-1; OVCAR-8; UACC-257; NCI-H226; COLO 205; TK-10; MDA-MB-435; 786-0; OVCAR-4; NCI-H460; SR.
What all share (test): NCI-60 cell line screen, 48 h

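Five compound concentrations were applied to cells in 96-well plates for 48 hours; endpoints were derived by simple linear interpolation of the resulting dose-response curve. GI50 = concentration required for 50% inhibition of growth.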 Calls of active or inactive are those of the source. No stated cut-off is given here; in the data, active = GI50 up to about 1.1 µM and inactive = higher.

As to `N#CC1=C(N)OC(c2cccc([N+](=O)[O-])c2)C1(C#N)C#N` (stereo not drawn), the GI50 in the assay on SF-268 was 26.5 µM (inactive); in the assay on ACHN, 18.2 µM (inactive); in the assay with MDA-N, 23.9 µM (inactive); with UO-31 it was 17.9 µM (inactive); in the assay with PC-3, 23.7 µM (inactive); with SF-295 it was 26.5 µM (inactive). The GI50 is 20 µM (inactive) with RXF 393; 17.6 µM (inactive) in the assay on IGROV-1; 15.2 µM (inactive) in the assay on HCT-116; 2.98 µM (inactive) in the assay with CAKI-1; 29.4 µM (inactive) in the assay on OVCAR-8; 17 µM (inactive) with UACC-257. In addition, the GI50 with NCI-H226 is 30.8 µM (inactive); with COLO 205, 17 µM (inactive); in the assay on TK-10, 19.1 µM (inactive); in the assay with MDA-MB-435, 23.3 µM (inactive); in the assay with 786-0 it was 14.9 µM (inactive).

Turning to `NC1N=C(c2ccc(Cl)cc2)C2=C(N1)c1ccccc1CC2` (stereo not drawn), the GI50 with SF-268 is > 54 µM (inactive); with ACHN, > 51.2 µM (inactive); with MDA-N, 2.29 µM (inactive); in the assay on UO-31, 32.7 µM (inactive); in the assay on PC-3, 23.1 µM (inactive); with SF-295, 22.3 µM (inactive). In addition, the GI50 was 7.96 µM (inactive) in the assay with RXF 393; 13.4 µM (inactive) in the assay with OVCAR-4; 5.68 µM (inactive) in the assay on IGROV-1; 8.51 µM (inactive) with NCI-H460; 8.39 µM (inactive) in the assay on HCT-116; 76.4 µM (inactive) in the assay on CAKI-1. Besides, the GI50 is 25.6 µM (inactive) in the assay with OVCAR-8; > 67.3 µM (inactive) with UACC-257; 14.4 µM (inactive) in the assay on NCI-H226; 33.9 µM (inactive) with COLO 205; 48.2 µM (inactive) with TK-10; 2.62 µM (inactive) in the assay with MDA-MB-435. Moreover, the GI50 in the assay on 786-0 is 13.2 µM (inactive).

For `COc1cc2c[n+](C)c3c4cc(OC)c(OC)cc4c(OC)cc3c2cc1OC`, the GI50 with SF-268 was 0.0689 µM (active); with ACHN, > 100 µM (inactive); in the assay with MDA-N, 6.32 µM (inactive); in the assay with UO-31, > 100 µM (inactive); in the assay on PC-3 it was 12.2 µM (inactive); in the assay on SF-295, 20 µM (inactive). Also, the GI50 was 8.83 µM (inactive) in the assay with RXF 393; 8.02 µM (inactive) in the assay with OVCAR-4; 17.4 µM (inactive) in the assay with NCI-H460; 2.92 µM (inactive) in the assay with HCT-116; > 100 µM (inactive) in the assay with CAKI-1; 0.371 µM (active) with OVCAR-8. The GI50 with UACC-257 is 2.86 µM (inactive); in the assay with NCI-H226, 1.36 µM (inactive); in the assay on COLO 205 it was 1.2 µM (inactive); in the assay with TK-10, > 100 µM (inactive); in the assay on MDA-MB-435, 11.2 µM (inactive); in the assay with 786-0, 5.43 µM (inactive).

As to `O=C1/C(=C/c2ccco2)N=C2Sc3c([nH]cnc3=O)N12`, the GI50 in the assay on SF-268, in the assay on ACHN, in the assay with MDA-N, in the assay on UO-31, in the assay with PC-3 and with SF-295 was > 100 µM (inactive) in each case. Besides, the GI50 with RXF 393 was > 100 µM (inactive); in the assay on OVCAR-4, 44.4 µM (inactive); in the assay with IGROV-1 it was > 100 µM (inactive); in the assay on HCT-116, > 100 µM (inactive); in the assay with CAKI-1, > 100 µM (inactive); in the assay with OVCAR-8, > 100 µM (inactive). The GI50 with UACC-257, with NCI-H226, in the assay with COLO 205, in the assay on TK-10, in the assay on MDA-MB-435 and with 786-0 was > 100 µM (inactive) in each case.

As for `CCOc1ccc(N/C(=C(/C(Cl)=C(/Cl)N2CCCCC2)[N+](=O)[O-])n2nnc3ccccc32)cc1`, the GI50 in the assay on SF-268 was 17.4 µM (inactive); with ACHN it was 16.2 µM (inactive); in the assay on MDA-N, 16.3 µM (inactive); with UO-31 it was 2 µM (inactive); in the assay with PC-3 it was 11.6 µM (inactive); in the assay with SF-295, 22.4 µM (inactive). Also, the GI50 is 22.2 µM (inactive) with NCI-H460; 16.7 µM (inactive) in the assay on HCT-116; 9.23 µM (inactive) with CAKI-1; 16.9 µM (inactive) with UACC-257; 27.9 µM (inactive) with NCI-H226; 20.6 µM (inactive) in the assay with COLO 205. Also, the GI50 with TK-10 is 32.8 µM (inactive); in the assay on MDA-MB-435 it was 8.49 µM (inactive); with 786-0 it was 18.7 µM (inactive).

As to `COc1ccc(CC2C(=O)NC(C)C(=O)N(C)C3C(=O)N(C)C(Cc4ccc(O)c(c4)Oc4ccc(cc4)C3O)C(=O)NC(C)C(=O)NC(C)C(=O)N2C)cc1` (stereo not drawn), the GI50 in the assay on SF-268 is 0.0125 µM (active); with ACHN, 0.0891 µM (active); with UO-31, 0.824 µM (active); in the assay on PC-3 it was 0.01 µM (active); in the assay on SF-295, 0.0138 µM (active); in the assay on RXF 393 it was 0.0396 µM (active). The GI50 with OVCAR-4 is 0.00664 µM (active); in the assay with IGROV-1, 0.0162 µM (active); in the assay on NCI-H460, 0.0167 µM (active); in the assay with HCT-116, 0.00181 µM (active); in the assay on CAKI-1, 0.0512 µM (active); in the assay on OVCAR-8 it was 0.021 µM (active). Moreover, the GI50 with SR is < 0.01 µM (active); in the assay with UACC-257 it was 0.0071 µM (active); with NCI-H226, 0.00459 µM (active); in the assay with COLO 205, 0.0206 µM (active); in the assay with TK-10, 0.336 µM (active); with MDA-MB-435, < 0.01 µM (active). The GI50 in the assay on 786-0 is 0.015 µM (active).

Turning to `COc1cc2c(cc1OC)CC(=O)c1cc(OC)c(OC)cc1/C=C\2`, the GI50 in the assay with SF-268 was > 12.5 µM (inactive); with ACHN, > 12.5 µM (inactive); with MDA-N, 2.8 µM (inactive); in the assay on UO-31 it was > 12.5 µM (inactive); in the assay on PC-3, > 12.5 µM (inactive); in the assay with SF-295, 7.16 µM (inactive). Besides, the GI50 in the assay with RXF 393 was > 12.5 µM (inactive); with OVCAR-4 it was > 12.5 µM (inactive); in the assay on IGROV-1 it was 10.8 µM (inactive); in the assay with NCI-H460, > 12.5 µM (inactive); in the assay with HCT-116, > 12.5 µM (inactive); in the assay on CAKI-1, > 12.5 µM (inactive). Also, the GI50 in the assay on OVCAR-8 was > 12.5 µM (inactive); with UACC-257, > 12.5 µM (inactive); in the assay on NCI-H226 it was > 12.5 µM (inactive); in the assay on COLO 205, 11.1 µM (inactive); in the assay on TK-10, > 12.5 µM (inactive); with MDA-MB-435, 3.92 µM (inactive). For the same compound, in the assay on 786-0, the GI50 was > 12.5 µM (inactive).

As for `CC1=CC(O)C(C(O)(C(F)(F)F)C(F)(F)F)C(C)(C)C1` (stereo not drawn), the GI50 in the assay on SF-268, in the assay on ACHN, in the assay with MDA-N, with PC-3, in the assay with SF-295 and in the assay with RXF 393 was > 10 µM (inactive) throughout. Also, the GI50 with OVCAR-4 was > 10 µM (inactive); with IGROV-1, 0.188 µM (active); in the assay with NCI-H460, > 10 µM (inactive); in the assay with HCT-116, > 10 µM (inactive); in the assay with CAKI-1, > 10 µM (inactive); in the assay with OVCAR-8 it was > 10 µM (inactive). Moreover, the GI50 in the assay with UACC-257 is > 10 µM (inactive); in the assay with NCI-H226, > 10 µM (inactive); with COLO 205, > 10 µM (inactive); in the assay with TK-10 it was > 10 µM (inactive); with MDA-MB-435, < 0.001 µM (active); in the assay with 786-0, < 0.001 µM (active).

On to `Cc1nc2ccccc2c(=O)n1-c1n[nH]c2ccccc12`, for which the GI50 in the assay with SF-268, with ACHN, in the assay with UO-31, in the assay with PC-3, in the assay with SF-295 and with RXF 393 was > 100 µM (inactive) each time. In addition, the GI50 in the assay on OVCAR-4, with IGROV-1, in the assay with NCI-H460, with HCT-116, in the assay on CAKI-1 and in the assay on OVCAR-8 was > 100 µM (inactive) throughout. Further, the GI50 is > 100 µM (inactive) in the assay with SR; > 100 µM (inactive) in the assay with UACC-257; 80.5 µM (inactive) in the assay on NCI-H226; > 100 µM (inactive) in the assay with COLO 205; > 100 µM (inactive) with TK-10; > 100 µM (inactive) in the assay on MDA-MB-435. In the assay on 786-0, the GI50 was > 100 µM (inactive).

For the compound `O=C(CN1C(=O)c2ccccc2C1=O)OCC1CCCN2CCCCC12` (stereo not drawn), the GI50 in the assay with SF-268, in the assay with ACHN, with MDA-N, with UO-31, with PC-3 and in the assay on SF-295 was > 100 µM (inactive) throughout. In addition, the GI50 in the assay on RXF 393, with OVCAR-4, with NCI-H460, in the assay with HCT-116, in the assay with CAKI-1 and with OVCAR-8 was > 100 µM (inactive) in each case. Besides, the GI50 was > 100 µM (inactive) with UACC-257; > 100 µM (inactive) in the assay on NCI-H226; 99.5 µM (inactive) with COLO 205; > 100 µM (inactive) in the assay on TK-10; > 100 µM (inactive) with MDA-MB-435; > 100 µM (inactive) in the assay with 786-0.

With `COc1ccccc1N1C(=O)/C(=C\c2cc(OC)c(OC)c(OC)c2)S(=O)(=O)C1c1ccccc1` (stereo not drawn), the GI50 with SF-268 is 44.4 µM (inactive); with ACHN, 41.2 µM (inactive); with MDA-N, 18.4 µM (inactive); in the assay with UO-31 it was 36.5 µM (inactive); in the assay on SF-295, 23.8 µM (inactive); in the assay on RXF 393, 10.6 µM (inactive). Further, the GI50 with OVCAR-4 is 39.9 µM (inactive); in the assay on NCI-H460, 61.1 µM (inactive); in the assay with HCT-116, 23.8 µM (inactive); in the assay with CAKI-1, 53.3 µM (inactive); in the assay with OVCAR-8, 37.2 µM (inactive); with SR it was 23.7 µM (inactive). Besides, the GI50 is 70.1 µM (inactive) in the assay on UACC-257; 44.8 µM (inactive) with NCI-H226; 26.9 µM (inactive) in the assay with COLO 205; > 100 µM (inactive) in the assay on TK-10; 16 µM (inactive) with MDA-MB-435; 54.7 µM (inactive) in the assay with 786-0.
